One experiment has as its system Hepatitis C virus. Description: Antiviral activity against Hepatitis C virus genotype 1b infected in human HuH7 cells after 3 days by luciferase reporter gene assay. The class given is functional, organism-based, Hepacivirus hominis. Conditions: Huh-7, 72 h.
A short description of experiment [1]: Inhibition of HCV NS5B polymerase after 4 hrs by on-bead solid phase homogeneous assay. Details: species or system Hepacivirus hominis.

As for `CCN(c1cc2oc(-c3ccc(F)cc3)c(-c3ncc[nH]3)c2c(F)c1-c1cc(C(=O)NC2(c3ncccn3)CC2)c(OC)cc1C)S(C)(=O)=O`, in the experiment on Hepatitis C virus, the EC50 amounted to 9 nM.

For `CCNc1cc2oc(-c3ccc(F)cc3)c(-c3ncc[nH]3)c2c(F)c1-c1cc(C(=O)NC2(c3ncccn3)CC2)c(OC)cc1C`, in the experiment on Hepatitis C virus, the EC50 worked out at 7.2 nM.

In turn, `COc1cc(C)c(-c2ccc3oc(-c4ccc(F)cc4)c(-c4ncc[nH]4)c3c2F)cc1C(=O)NC1(c2ncccn2)CC1` displayed an IC50 in experiment [1] of 30 nM. Further, the EC50 in the experiment with Hepatitis C virus was determined as 30 nM.

As usually defined, the EC50 is the concentration that produces a half-maximal response. The low end stands for a more potent agent, the high end for a less potent agent. A word on the IC50: it is the concentration at which inhibition is half-maximal. Lower therefore signals higher potency.

These data come from ChEMBL document CHEMBL3124920, “Substituted Benzofurans as Inhibitors of HCV NS5B Protein” (ACS Med Chem Lett, 2014).
